We go through 15 compounds from patent US20080200473A1, “Imidazo [1,2-a]Pyridine Compounds, Compositions, Uses and Methods Thereto” (Ferrer Internacional, S.A., priority 2004, published 2008).

In one assay the test system is α2-GABAA receptor. Description: Ligand-binding assay, competitive with radiolabeled flumazenil, spinal cord membranes. To be noted: Affinity for α2-GABAA receptor, rat spinal cord membranes, radiolabeled flumazenil 1 nM; for % Inhibition 10^−5M: 10^-5M test compound; for % Inhibition 10^−7M: 10^-7M test compound. As to the method: (§1) Ligand-binding assays. Determination of the affinity of test compounds for α1- and α2-GABAA receptor.
(§2) Male Sprague-Dawley rats weighing 200-250 g at the time of experiment were used. After decapitation of the animal, the cerebellum (tissue that mostly contains α1-GABAA receptor) and spinal cord (tissue that mostly contains α2-GABAA receptor) were removed. The membranes were prepared according to the method by J. Lameh et al. (Prog. Neuro-Psychopharmacol. Biol. Psychiatry, 24, 979-991, 2000) and H. Noguchi et al. (Eur. J. Pharm., 434, 21-28, 2002). Once the tissues weighed, they were suspended in 50 mM Tris.HCl (pH 7.4), 1:40 (w/v), or sucrose 0.32 M in the case of spinal cord, homogenized and then centrifuged at 20,000 g for 10 min at 7° C. twice. The resulting pellet was resuspended under the same conditions and centrifuged again. The pellet was finally resuspended on a minimum volume and kept at −80° C. overnight. On the next day, the process was repeated until the final pellet was resuspended at a ratio of 1:10 (w/v) in the case of cerebellum and at a ratio of 1:5 (w/v) in the case of spinal cord.
(§3) Affinity was determined by competitive tests using radiolabeled flumazenil as ligand. The tests were performed according to the methods described by S. Arbilla et al. (Eur. J. Pharmacol., 130, 257-263, 1986); and Y. Wu et al. (Eur. J. Pharmacol., 278, 125-132, 1995) using 96-well microtiter plates. The membranes containing the study receptors, flumazenil (radiolabeling at a final concentration of 1 nM) and ascending concentrations of test compounds (in a total volume of 230 μL in 50 mM [ph 7.4] Tris.HCl buffer) were incubated. Simultaneously, the membranes were only incubated with the radiolabeled flumazenil (total binding, 100%) and in the presence of an elevated concentration of unradiolabeled flumazenil (non-specific binding, % estimation of radiolabeled ligand). The reactions started on adding the radiolabeled ligand followed by incubation for 60 minutes at 4° C. At the end of the incubation period, 200 μL of reaction were transferred to a multiscreen plate (Millipore) and filtered using a vacuum manifold and then washed three times with cold test buffer. The multiscreen plates were equipped with a GF/B filter that retained the membranes containing the receptors and the radiolabeled ligand which has been bound to the receptors. After washing, the plates were left till dry. Once dried, scintillation liquid was added and left under stirring overnight. The next day the plates were counted using a Perkin-Elmer Microbeta scintillation counter.
(§4) For analysis of the results the percentage of specific binding for every concentration of test compound was calculated as follows:
(§5) % specific binding=(X−N/T−N)×100
(§6) where, X: amount of bound ligand for every concentration of compound. T: total binding, maximum amount bound to the radiolabeled ligand. N: non-specific binding, amount of radiolabeled ligand bound in a non-specific way irrespective of the receptor used.
(§7) Every concentrations of compound were tested in triplicate and their mean values were used to determine the experimental values of % specific binding versus the concentration of compound. Affinity data are expressed as % inhibition at 10^-5M and 10^-7M concentrations.

The test system of another assay is α1-GABAA receptor. Description: Ligand-binding assay, competitive with radiolabeled flumazenil, cerebellum membranes. The note with it: Affinity for α1-GABAA receptor, rat cerebellum membranes, radiolabeled flumazenil 1 nM; for % Inhibition 10^−5M: 10^-5M test compound; for % Inhibition 10^−7M: 10^-7M test compound. On the procedure: as §1, §2, §3, §4, §5, §6, §7

The test system of a further assay is mice. Description: In vivo predictive sedation-hypnosis test (inhibition of traveled distance). Further details: species or system mouse. The note with it: male CD1 mice; single equimolecular intraperitoneal doses; traveled distance over 30 min after dosing (first 5 min discarded) versus control. On the procedure:
In vivo determination of predictive sedative-hypnotic action.
The in vivo effects of these compounds were assessed by a predictive sedation-hypnosis test in mice (D. J. Sanger et al., Eur. J. Pharmacol., 313, 35-42, 1996; and G. Griebel et al., Psychopharmacology, 146, 205-213, 1999).
Groups of 5-8 male CD1 mice, weighing 22-26 g at the time of test, were used. The test compounds were administered in single equimolecular intraperitoneal doses, suspended in 0.25% agar with one drop of Tween in a volume of 10 mL/kg. Control animals received the vehicle alone. Using a Smart System (Panlab, S. L., Spain) the traveled distance in cm is recorded for each mouse at 5-min intervals during a period of 30 minutes after dosing. The inhibition percentage of traveled distance of treated animals versus control animals (the first 5 min were discarded) was calculated.

On to `Cc1ccc(-c2nc3ccc(C)cn3c2CNC(=O)c2sccc2C)cc1` [Example 16, 3-Methyl-thiophene-2-carboxylic acid (6-methyl-2-p-tolyl-imidazo[1,2-a]pyridin-3-ylmethyl)-amide], for which, in the assay with α2-GABAA receptor, the “% Inhibition 10^−5M” value is given as 52.9% and the “% Inhibition 10^−7M” value is 0.0%. Moreover, in the assay with α1-GABAA receptor, the “% Inhibition 10^−5M” value was found to be 95.4% and the “% Inhibition 10^−7M” value was 2.2%. The “% Inhibition Motor Activity” value with mice is 82.38%.

Take `Cc1ccc(-c2nc3ccc(C)cn3c2CNC(=O)c2ccnc(Cl)c2)cc1` [Example 17, 2-Chloro-N-(6-methyl-2-p-tolyl-imidazo[1,2-a]pyridin-3-ylmethyl)-isonicotinamide]: the “% Inhibition 10^−5M” value was 24.4% in the assay with α2-GABAA receptor and 94.5% with α1-GABAA receptor. The “% Inhibition 10^−7M” value with α2-GABAA receptor and with α1-GABAA receptor was 0.0% each time. Further, the “% Inhibition Motor Activity” value in the assay with mice was 54.40%.

Regarding `Cc1ccc(-c2nc3ccc(C)cn3c2CNC(=O)c2ccc3ccccc3n2)cc1` [Example 19, Quinoline-2-carboxylic acid (6-methyl-2-p-tolyl-imidazo[1,2-a]pyridin-3-ylmethyl)-amide], the “% Inhibition 10^−5M” value was found to be 47.6% in the assay with α2-GABAA receptor and 95.5% in the assay with α1-GABAA receptor. Moreover, the “% Inhibition 10^−7M” value in the assay on α2-GABAA receptor and with α1-GABAA receptor was 0.0% in each case. The “% Inhibition Motor Activity” value in the assay with mice is 47.98%.

As for `Cc1ccc(-c2nc3ccc(C)cn3c2CNC(=O)c2ncc(F)cc2F)cc1` [Example 20, 3,5-Difluoro-pyridine-2-carboxylic acid (6-methyl-2-p-tolyl-imidazo[1,2-a]pyridin-3-ylmethyl)-amide], the “% Inhibition 10^−5M” value in the assay with α2-GABAA receptor is recorded as 95.2%; with α1-GABAA receptor, 99.8%. The “% Inhibition 10^−7M” value in the assay on α2-GABAA receptor is recorded as 0.0%; in the assay with α1-GABAA receptor it was 65.9%. The “% Inhibition Motor Activity” value with mice is recorded as 91.99%.

For `COc1ccc2nc(C(=O)NCc3c(-c4ccc(C)cc4)nc4ccc(C)cn34)sc2c1` [Example 21, 6-Methoxy-benzothiazole-2-carboxylic acid (6-methyl-2-p-tolyl-imidazo[1,2-a]pyridin-3-ylmethyl)-amide], the entries for the “% Inhibition 10^−5M” value in the assay on α2-GABAA receptor and in the assay on α1-GABAA receptor were 25.6% and 67.9%, respectively. The “% Inhibition 10^−7M” value is on record as 0.0% in the assay with α2-GABAA receptor and 3.5% with α1-GABAA receptor. Besides, the “% Inhibition Motor Activity” value in the assay on mice is 57.14%.

As for `Cc1ccc(-c2nc3ccc(C)cn3c2CN(C)C(=O)c2ccc(N(C)C)cc2)cc1` [Example 22, 4-Dimethylamino-N-methyl-N-(6-methyl-2-p-tolyl-imidazo[1,2-a]pyridin-3-ylmethyl)-benzamide], the “% Inhibition 10^−5M” value with α2-GABAA receptor was 9.4%; with α1-GABAA receptor, 84.8%. Further, the “% Inhibition 10^−7M” value in the assay on α2-GABAA receptor is reported as 0.0%; in the assay on α1-GABAA receptor, 62.3%. Further, the “% Inhibition Motor Activity” value in the assay with mice is listed as 89.45%.

Turning to `Cc1ccc(-c2nc3ccc(C)cn3c2CN(C)C(=O)C2CC2)cc1` [Example 24, Cyclopropanecarboxylic acid methyl-(6-methyl-2-p-tolyl-imidazo[1,2-a]pyridin-3-ylmethyl)-amide], in the assay on α2-GABAA receptor, the “% Inhibition 10^−5M” value amounted to 14.4% and the “% Inhibition 10^−7M” value is recorded as 0.0%. Also, in the assay with α1-GABAA receptor, the “% Inhibition 10^−5M” value worked out at 99.8% and the “% Inhibition 10^−7M” value came out at 75.2%. The “% Inhibition Motor Activity” value in the assay with mice is 80.71%.

For `COc1ccc(C(=O)N(C)Cc2c(-c3ccc(C)cc3)nc3ccc(C)cn23)cc1` [Example 25, 4-Methoxy-N-methyl-N-(6-methyl-2-p-tolyl-imidazo[1,2-a]pyridin-3-ylmethyl)-benzamide], in the assay on α2-GABAA receptor, the “% Inhibition 10^−5M” value turned out to be 0.0% and the “% Inhibition 10^−7M” value came out at 0.0%. Also, in the assay on α1-GABAA receptor, the “% Inhibition 10^−5M” value is recorded as 91.9% and the “% Inhibition 10^−7M” value is reported as 26.6%. Further, the “% Inhibition Motor Activity” value in the assay with mice is 67.34%.

For `Cc1ccc(-c2nc3ccc(C)cn3c2CN(C)C(=O)c2ccccn2)cc1` [Example 28, Pyridine-2-carboxylic acid methyl-(6-methyl-2-p-tolyl-imidazo[1,2-a]pyridin-3-ylmethyl)-amide], in the assay on α2-GABAA receptor, the “% Inhibition 10^−5M” value is recorded as 93.9% and the “% Inhibition 10^−7M” value amounted to 14.3%. In the assay on α1-GABAA receptor, the “% Inhibition 10^−5M” value worked out at 99.8% and the “% Inhibition 10^−7M” value turned out to be 73.3%. In the assay on mice, the “% Inhibition Motor Activity” value was 55.64%.

Take `Cc1ccc(-c2nc3ccc(C)cn3c2CN(C)C(=O)c2cccs2)cc1` [Example 29, Thiophene-2-carboxylic acid methyl-(6-methyl-2-p-tolyl-imidazo[1,2-a]pyridin-3-ylmethyl)-amide]: the results for the “% Inhibition 10^−5M” value in the assay with α2-GABAA receptor and in the assay on α1-GABAA receptor were 90.2% and 99.7%, respectively. Further, the “% Inhibition 10^−7M” value with α2-GABAA receptor amounted to 25.0%; with α1-GABAA receptor, 84.9%. Moreover, the “% Inhibition Motor Activity” value in the assay on mice is given as 93.98%.

For `Cc1ccc(C(=O)N(C)Cc2c(-c3ccc(C)cc3)nc3ccc(C)cn23)cc1` [Example 30, 4,N-Dimethyl-N-(6-methyl-2-p-tolyl-imidazo[1,2-a]pyridin-3-ylmethyl)-benzamide], the figures for the “% Inhibition 10^−5M” value in the assay on α2-GABAA receptor and with α1-GABAA receptor were 33.9% and 90.5%, respectively. Also, the “% Inhibition 10^−7M” value with α2-GABAA receptor is recorded as 0.0%; in the assay on α1-GABAA receptor it was 4.6%. Moreover, in the assay on mice, the “% Inhibition Motor Activity” value is reported as 44.36%.

Consider `Cc1ccc(-c2nc3ccc(C)cn3c2CN(C)C(=O)c2ccc([N+](=O)[O-])cc2)cc1` [Example 31, N-Methyl-N-(6-methyl-2-p-tolyl-imidazo[1,2-a]pyridin-3-ylmethyl)-4-nitro-benzamide], for which the “% Inhibition 10^−5M” value in the assay with α2-GABAA receptor was determined as 38.8%; in the assay with α1-GABAA receptor it was 82.5%. The entries for the “% Inhibition 10^−7M” value in the assay on α2-GABAA receptor and in the assay with α1-GABAA receptor were 0.0% and 1.2%, respectively. In the assay on mice, the “% Inhibition Motor Activity” value is reported as 69.67%.

In the case of `Cc1ccc(-c2nc3ccc(C)cn3c2CN(C)C(=O)c2ccc([N+](=O)[O-])o2)cc1` [Example 32, 5-Nitro-furan-2-carboxylic acid methyl-(6-methyl-2-p-tolyl-imidazo[1,2-a]pyridin-3-ylmethyl)-amide], the “% Inhibition 10^−5M” value is reported as 77.5% in the assay with α2-GABAA receptor and 98.0% in the assay on α1-GABAA receptor. Besides, the “% Inhibition 10^−7M” value in the assay on α2-GABAA receptor is given as 0.0%; with α1-GABAA receptor, 14.5%. The “% Inhibition Motor Activity” value in the assay on mice was 92.66%.

On to `Cc1ccc(-c2nc3ccc(C)cn3c2CN(C)C(=O)c2ncc(F)cc2F)cc1` [Example 33, 3,5-Difluoro-pyridine-2-carboxylic acid methyl-(6-methyl-2-p-tolyl-imidazo[1,2-a]pyridin-3-ylmethyl)-amide], for which, in the assay with α2-GABAA receptor, the “% Inhibition 10^−5M” value worked out at 74.0% and the “% Inhibition 10^−7M” value was 0.0%. Further, in the assay on α1-GABAA receptor, the “% Inhibition 10^−5M” value came to 98.4% and the “% Inhibition 10^−7M” value is recorded as 37.3%. Moreover, in the assay with mice, the “% Inhibition Motor Activity” value is 35.02%.

As for `Cc1ccc(-c2nc3ccc(C)cn3c2CN(C)C(=O)c2ccnc(Cl)c2)cc1` [Example 34, 2-Chloro-N-methyl-N-(6-methyl-2-p-tolyl-imidazo[1,2-a]pyridin-3-ylmethyl)-isonicotinamide], in the assay with α2-GABAA receptor, the “% Inhibition 10^−5M” value is reported as 85.0% and the “% Inhibition 10^−7M” value is on record as 0.0%. For the same compound, in the assay on α1-GABAA receptor, the “% Inhibition 10^−5M” value was 98.8% and the “% Inhibition 10^−7M” value came out at 39.6%. Also, the “% Inhibition Motor Activity” value in the assay with mice is reported as 92.98%.
